The values that follow are results of earlier work, collected in article PMC9599640.

On the set-up of this series: method as in PMID 27217383. To be noted: phase I trial of abemaciclib.

On to `CCN1CCN(Cc2ccc(Nc3ncc(F)c(-c4cc(F)c5nc(C)n(C(C)C)c5c4)n3)nc2)CC1` [abemaciclib], for which the MTD was 200 mg BID.
